Test system: p388 lymphocytic leukemia
Assay: P388 Lymphocytic Leukemia Test
Type: in vivo, CDF₁ mice
Conditions: median survival time treated/control
Description: P388 Lymphocytic Leukemia Test
Female, CDF₁ mice (5-6 weeks old, weighing 17-20 g) were intraperitoneally transplanted with 1 × 10⁶ cells of p388 lymphocytic leukemia passaged on female, DBA/2 mice on day 0.
A suspension of the compound of formula (I) in 0.5% of gum arabic saline solution was administered intraperitoneally once a day, 5 times in all, from day l to day 5, or 2 times in all, day l and day 5. A solution of 5-fluorouracil in saline served as a reference drug, and was administered similarly. Control group were similarly administered with only 0.5% gum arabic saline solution.
Eight animals were used for the treated group with the compound of formula (I) and the reference drug, respectively, and 16 animals for control group.
The antitumor effect was evaluated according to the criterion of the National Cancer Institute of the United States (NCI). The survivors of each group were recorded for 30 days, and the value of T/C × 100 (%) was calculated from the median survival times for the treated animals (T) and the control animals (C). When the value is 125 or more, the drug is judged to be effective.

[1] = Dose 25.0 mg/kg intraperitoneally, administration day 1 - 5
[2] = Dose 50.0 mg/kg intraperitoneally, administration day 1 - 5

O=c1[nH]cc(F)c(=O)[nH]1 [5-fluoro-uracil, 5-fluorouracil, reference compound]
T/C x 100 (Dose 3.1 mg/kg intraperitoneally, administration day 1 - 5): 136%
T/C x 100 (Dose 6.3 mg/kg intraperitoneally, administration day 1 - 5): 148%
T/C x 100 (Dose 12.5 mg/kg intraperitoneally, administration day 1 - 5): 166%
T/C x 100 [1]: 176%

CN(C)CCNC(=O)c1c(O)c2ccccc2c2nc3ccncc3nc12 [Compound 1, N-β-dimethylaminoethyl 5-hydroxybenzo[f]pyrido[3,4-b]quinoxaline-6-carboxamide]
T/C x 100 (Dose 6.3 mg/kg intraperitoneally, administration day 1, 5, 30 days observation): 133%
T/C x 100 (Dose 12.5 mg/kg intraperitoneally, administration day 1, 5): 137%
T/C x 100 (Dose 25.0 mg/kg intraperitoneally, administration day 1, 5): 275%

CN(C)CCNC(=O)c1c(O)c2ccccc2c2nc3ncccc3nc12 [Compound 5, N-β-dimethylaminoethyl 5-hydroxybenzo[f]pyrido[3,2-b]quinoxaline-6-carboxamide]
T/C x 100 [1]: 130%
T/C x 100 (Dose 50.0 mg/kg intraperitoneally, administration day 1, 5): 135%
T/C x 100 (Dose 100 mg/kg intraperitoneally, administration day 1, 5): 195%
T/C x 100 (Dose 200 mg/kg intraperitoneally, administration day 1, 5): 200%

O=C(NCCNCCO)c1c(O)c2ccccc2c2nc3ncccc3nc12 [Compound 7, N-2-(2-hydroxyethylamino)ethyl 5-hydroxybenzo[f]pyrido[3,2-b]quinoxaline-6-carboxamide]
T/C x 100 [1]: 174%
T/C x 100 [2]: 227%

CN(C)CCNC(=O)c1c(O)c2ccccc2c2nc3ncncc3nc12 [Compound 8, N-β-dimethylaminoethyl 5-hydroxynaphtho[2,1-g]pteridine-6-carboxamide]
T/C x 100 [1]: 133%
T/C x 100 [2]: 153%
T/C x 100 (Dose 100 mg/kg intraperitoneally, administration day 1 - 5): 148%
